Measured values reported in patent US8603498B2, “Lipo-phosphated or lipo-sulphated compound, compositions comprising it and topical uses thereof” (Sederma, S.A.S., priority 2010, dated 2013).

Experiments:
filaggrin/profilaggrin = experiment: Filaggrin synthesis on human keratinocytes (immunofluorescent method); assay type: cell-based; details: for Filaggrin/profilaggrin (UFA/10^6 cell.): 21 days contact; for Filaggrin/profilaggrin Change (%): vs control
Method: (§1) Protocol: Human keratinocytes were cultivated up to confluence. The cells were then placed in contact/not contact with the solubilized Lipo-Phosphomalate for 21 days. At the end of this contact period, labelling common to both filaggrin and profilaggrin was carried out on cell layers using specific antibodies. Labelling intensity was analysed on photos (n=15 photos) and compared to that obtained for the negative control and for vitamin D3 at 10^−7M used as a positive differentiation control.

matriptase = experiment: Production of matriptase in cultured human keratinocytes by immunolabelling; assay type: cell-based; details: for Matriptase Change (%): vs control
caspase-14 = experiment: Production of caspase-14 in cultured human keratinocytes by immunolabelling; assay type: cell-based; details: for Caspase Change (%): vs control
loricrin = experiment: Production of loricrin in cultured human keratinocytes by immunolabelling; assay type: cell-based; details: for Loricrin Change (%): vs control
Method: as §1
Loricrine is one of the key elements in the formation of the corneal envelope. It is attached to involucrin (see 1.1) by transglutaminase, which forms rigid, insoluble structures. The method described in 1.2. was used.

transglutaminase-1 m-RNA = experiment: Transglutaminase-1 m-RNA in keratinocytes by qRT-PCR; assay type: cell-based, human; details: 5 ppm, 14 days; for m-RNA % change: after normalisation by the housekeeping gene
From the text: ByqRT-PCR: Human keratinocytes were placed in contact/not placed in contact with solubilised for 14 days. At the end of the contact period, the cultures were stopped and m-RNA allowing production of transglutaminase-1 protein was quantified using the RT-PCR method.
After extraction and purification of the m-RNA, copies are made in DNA using a Reverse Transcriptase (RT). The number of copies of a given m-RNA (here that of TGase) is thereafter amplified using two oligonucleotides (called primers) specific to the gene of TGase and to an enzyme (PCR=polymerase chain reaction) during a series of amplification cycles, each of which doubling the number of copies present. The result of this amplication is measured by fluorescence. Ct is the number of cycles required to achieve a given fluorescence level (arbitrarily set). It is clear, that the more m-RNA of a given gene present in the starting culture there are, the fewer cycles (Ct) are needed to reach the set level of fluorescence.

transglutaminase = experiment: Transglutaminase activity in keratinocytes by enzymology (fluorescent substrate); assay type: cell-based, human; details: 5 ppm, 14 days; for Enzymology % Change: vs control
From the text: At the end of the 14-day contact period, the cells were placed in contact with a fluorescent synthetic transglutaminase substrate. Metabolisation of the substrate via transglutaminase will allow the fixation in the intracellular protein matrix. After rinsing, the non fixed fluorescent substrate is eliminated and the fluorescence fixed in the cells by the enzyme is quantified.

transglutaminase-1 gene = experiment: DNA-Array study, transglutaminase-1 gene; assay type: cell-based; details: in the presence of solubilised Lipo-Phosphomalate
From the text: (§2) In addition, a DNA-Array study has shown that the transglutaminase-1 and involucrin genes are over-expressed in the network with other genes essential for the formation of the corinfied layer in the presence of solubilised Lipo-Phosphomalate.

involucrin gene = experiment: DNA-Array study, involucrin gene; assay type: cell-based; details: in the presence of solubilised Lipo-Phosphomalate
From the text: as §2

cholesterol [1] = experiment: Cholesterol in keratinocytes by immunolabelling (IMF); assay type: cell-based, human; details: 5 ppm, 7 days
Method: Cultured human keratinocytes at confluence were placed in contact with the Lipo-Phosphomalate in a medium slightly enriched with calcium to promote the establishment of intercellular junctions and thus improve the anchorage of differentiated cells to the underlying cells. A negative control was carried out in the same medium. After a 7-day contact period, the layer was labeled with a cholesterol-specific fluorescent. The intensity of the labeling was analysed on the photos and compared to that obtained with the negative control (Table 6).

cholesterol [2] = experiment: Cholesterol in keratinocytes by HPTLC; assay type: cell-based, human; details: 5 ppm, 7 days
Method: (§3) The same protocol was followed as before but a larger quantity of keratinocyes was used on this occasion because of the limits of detection of the apparatus. After 7 days, the layers were rinsed, lipids extracted using solvents before being deposited on a thin-layer chromatography plate using an automated device. After migration and detection, the bands were analysed and quantified based on a range of standard lipids deposited on the same plate.

[3] = test system: non hydroxylated ceramides; experiment: Non hydroxylated ceramides in keratinocytes by HPTLC; assay type: cell-based, human; details: 5 ppm
Method: as §3
(§4) At the same time as the HPTLC cholesterol assay, an assay of hydroxylated and non-hydroxylated ceramides was carried out on the extracts.

hydroxylated ceramides = experiment: Hydroxylated ceramides in keratinocytes by HPTLC; assay type: cell-based, human; details: 5 ppm, 7 days
Method: as §3, §4

[4] = 5 ppm, listed as Solubilised Lipo-Phosphomalate
[5] = 5 ppm, listed as solubilised Lipo-Phosphomalate
[6] = listed as Solubilised Lipo-Phosphomalate
[7] = listed as solubilised Lipo-Phosphomalate

- transglutaminase-1 gene expression (DNA-Array) (transglutaminase-1 gene): over-expressed
Compound: CCCCCCCCCCCCCCOC(=O)CC(OP(=O)(O)O)C(=O)O (stereo not shown) [Lipo-Phosphomalate, 2-phosphate-succinic-acid-4-tetradecyle ester]
- Filaggrin/profilaggrin (UFA/10^6 cell.) (filaggrin/profilaggrin; 1.5 ppm): 3.04 ± 1.21 UFA/10^6 cell.
- Filaggrin/profilaggrin Change (%) (filaggrin/profilaggrin; 1.5 ppm): +119%; p < 0.01
- Filaggrin/profilaggrin (UFA/10^6 cell.) (filaggrin/profilaggrin; 5 ppm): 5.00 ± 1.58 UFA/10^6 cell.
- Filaggrin/profilaggrin Change (%) (filaggrin/profilaggrin; [4]): +259%; p < 0.01
- Filaggrin/profilaggrin Change (%) (filaggrin/profilaggrin; [5]): +259%
- Matriptase (UFA/10^6 cell.) (matriptase; 1.5 ppm): 2.27 ± 0.47 UFA/10^6 cell.
- Matriptase Change (%) (matriptase; 1.5 ppm): +125%; p < 0.01
- Matriptase (UFA/10^6 cell.) (matriptase; 5 ppm): 4.08 ± 1.56 UFA/10^6 cell.
- Matriptase Change (%) (matriptase; [4]): +304%; p < 0.01
- Matriptase Change (%) (matriptase; [5]): +304%
- Caspase (UFA/10^6 cell.) (caspase-14; 1.5 ppm): 1.13 ± 0.44 UFA/10^6 cell.
- Caspase Change (%) (caspase-14; 1.5 ppm): +121%; p < 0.01
- Caspase (UFA/10^6 cell.) (caspase-14; 5 ppm): 1.68 ± 0.64 UFA/10^6 cell.
- Caspase Change (%) (caspase-14; [4]): +229%; p < 0.01
- Caspase Change (%) (caspase-14; [5]): +229%
- Loricrin (UFA/10^6 cell.) (loricrin; 1.5 ppm): 1.69 ± 0.67 UFA/10^6 cell.
- Loricrin Change (%) (loricrin; 1.5 ppm): +131%; p < 0.01
- Loricrin (UFA/10^6 cell.) (loricrin; 5 ppm): 3.84 ± 1.19 UFA/10^6 cell.
- Loricrin Change (%) (loricrin; 5 ppm): +426%; p < 0.01
- m-RNA % change (transglutaminase-1 m-RNA; [6]): +101%; p < 0.01
- m-RNA % change (transglutaminase-1 m-RNA; [7]): ~+100%
- m-RNA Number of cycles: Ct (transglutaminase-1 m-RNA; control 24.60 ± 0.42): 23.25 ± 0.46
- Enzymology Transglutaminase (UFA/10^6 cell.) (transglutaminase): 516 ± 63 UFA/10^6 cell.
- Enzymology % Change (transglutaminase; [6]): +124%; p < 0.01
- Enzymology % Change (transglutaminase; [7]): ~+100%
- involucrin gene expression (DNA-Array) (involucrin gene): over-expressed
- IMF Cholesterol (UFA/10^6 cell.) (cholesterol [1]): 4.98 ± 2.59 UFA/10^6 cell.
- IMF Cholesterol % Change (cholesterol [1]; vs control): +107%; p < 0.04
- HPTLC Cholesterol (pg/10^6 cell.) (cholesterol [2]): 30.89 ± 7.20 pg/10^6 cell.
- HPTLC Cholesterol % Change (cholesterol [2]; vs control): +53%; p < 0.05
- Non hydroxylated Ceramides (pg/10^6 cell.) ([3]; 7 days): 8.41 ± 1.30 pg/10^6 cell.
- Non hydroxylated Ceramides % Change ([3]; vs control): +256%; p < 0.01
- Hydroxylated Ceramides (pg/10^5 cell.) (hydroxylated ceramides): 10.50 ± 1.12 pg/10^5 cell.
